Assay results: patent US10654808B2, “Tyrosine kinase inhibitor and pharmaceutical composition comprising same” (GUANGDONG RAYNOVENT BIOTECH CO., LTD., priority 2015, dated 2020)

What was measured:
VEGFR2 = target: T1, VEGFR2 (Homo sapiens, UniProt P35968); test: Z'-LYTE in vitro enzyme activity assay, VEGFR2; type: biochemical; conditions: 100 μM ATP, 60 minutes, room temperature; read-out: IC50 detected by Z'-LYTE, VEGFR2
T1 construct: purchased Life technology
In short: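 Reaction with 3 nM VEGFR2, 2 μM Tyr1 peptide and 100 μM ATP in HEPES pH 7.5/MgCl2/EGTA/BRIJ-35, 1% DMSO, 60 min at room temperature; development reagent then 60 min at 23° C. Compounds tested at 11 threefold dilutions, 10 μM–0.17 nM final, in duplicate; IC50 from 4-parameter fit of inhibition.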

HUVEC = test: CellTiter-Glo luminescent cell viability assay, HUVEC stimulated with hVEGF-165; type: cell-based; conditions: Homo sapiens, hVEGF-165 20 ng/ml, 72 hours, read-out: IC50 detected by CellTiter-Glo, HUVEC
Protocol: The intracellular ATP changes were measured by CellTiter-Glo® Luminescent Cell Viability Assay. The IC50 value of the compounds was used as an index to evaluate the inhibitory effect of the compounds on HUVEC in vitro.
HUVEC cell line (ATCC), EGM-2 BulletKit (Lonza), hVEGF-165 (Cell Signaling), trypsin (Invitrogen), DPBS (Hyclone), 384 cell plate (Greiner), 384 compound plate (Greiner), CO2 incubator (Thermo), centrifuge (Eppendorf), Vi-cell cell counter (Beckman Coulter), Bravo Automatic Liquid Workstation (Agilent), Envision (Perkin Elmer)
B: Cell plating: HUVEC cells were resuspended with starved medium (only containing 2% FBS and 0.1% GA-1000) and diluted to a concentration of 20,000/mL. The diluted cells were added to a 384 plate (Greiner), 50 μl per well. The cell plates were placed in a 37° C., 5% CO2 incubator overnight.
C: Drug addition: the test compounds were diluted 4 times to obtain a total of 10 doses at a final concentration of 10 uM to 0.038 nM, two parallel wells. The middle plate was added with 47.6 uL of starved medium per well. 2.4 μl of compounds was transferred from a gradient dilution compound plate to a middle plate and mixed well. 5 μl of liquid was transferred from the middle plate to a cell plate. Incubate for 1 hour at 37° C. in a 5% CO2 incubator, 5 μl of starved medium containing hVEGF-165 (the final concentration was 20 ng/ml) and Heparin (the final concentration was 1 ng/m) were added and incubated at 37° C. in a 5% CO2 incubator for 72 hours.
D: After 72 hours, 30 μl of assay reagents was added and incubated at room temperature for 10-30 minutes, Envision was used to read the plate.
The reading was converted into suppression rate (%) (Max−Sample)/(Max−Min)*100%. Parameter curve fitting (Model 205 in XLFIT5, iDBS) was used to measure to obtain IC50 data.

Calu 6 Transplant model = test: Tumor growth inhibition (TGI), Calu 6 transplant model in mice; type: in vivo; conditions: QD
Protocol: The evolution and growth trends of the tumor was evaluated by the relationship between tumor volume and time. The long axis (L) and short axis (W) of the subcutaneous tumor were measured twice a week by the caliper and the volume of the tumor (TV) was calculated by the formula ((L×W^2)/2). TGI was calculated by the difference between the median tumor volume of the mice in the solvent group and the median tumor volume of the mice in the drug group expressed as a percentage of the tumor volume in the solvent control group
Calculated by the following formula: % TGI=((intermediate tumor volume (control)−intermediate tumor volume (administration group))/intermediate tumor volume (control group))×100%
The original statistical analysis was performed by repeated variance analysis, and then a multiple comparisons were performed using the Scheffe psot hoc test method. Individual solvent (0.5% methylcellulose+0.2% Tween aqueous solution) was a negative control.

FGFR1 = target: T2, FGFR1 (Homo sapiens, UniProt P11362); test: Z'-LYTE in vitro enzyme activity assay, FGFR1; type: biochemical; conditions: 25 μM ATP, 60 minutes, room temperature; read-out: IC50 detected by Z'-LYTE, FGFR1
T2 construct: purchased Life technology
In short: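 Z′-LYTE FRET assay with 1 nM FGFR1, 2 μM Tyr4 peptide and 25 μM ATP in HEPES pH 7.5 with Mg/Mn, 60 min at room temperature, then development 60 min at 23 °C. Compounds tested at 11 concentrations from 10 μM to 0.17 nM in 1% DMSO. IC50 from 4-parameter fit of inhibition.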

PDGFRB = target: T3, PDGFRB (Homo sapiens, UniProt P09619); test: Z'-LYTE in vitro enzyme activity assay, PDGFRB; type: biochemical; conditions: 100 μM ATP, 60 minutes, room temperature; read-out: IC50 detected by Z'-LYTE, PDGFRB
T3 construct: purchased Millipore
In short: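 Z′-LYTE FRET kinase assay using 40 nM PDGFRB, 2 μM Tyr4 peptide and 100 μM ATP in HEPES pH 7.5 with Mg2+/Mn2+ and 1% DMSO. The reaction ran 60 min at room temperature, followed by development for 60 min at 23 °C. IC50 values came from 4-parameter fits over 11 concentrations (10 μM–0.17 nM).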

T3 sequence (P09619 33-1106): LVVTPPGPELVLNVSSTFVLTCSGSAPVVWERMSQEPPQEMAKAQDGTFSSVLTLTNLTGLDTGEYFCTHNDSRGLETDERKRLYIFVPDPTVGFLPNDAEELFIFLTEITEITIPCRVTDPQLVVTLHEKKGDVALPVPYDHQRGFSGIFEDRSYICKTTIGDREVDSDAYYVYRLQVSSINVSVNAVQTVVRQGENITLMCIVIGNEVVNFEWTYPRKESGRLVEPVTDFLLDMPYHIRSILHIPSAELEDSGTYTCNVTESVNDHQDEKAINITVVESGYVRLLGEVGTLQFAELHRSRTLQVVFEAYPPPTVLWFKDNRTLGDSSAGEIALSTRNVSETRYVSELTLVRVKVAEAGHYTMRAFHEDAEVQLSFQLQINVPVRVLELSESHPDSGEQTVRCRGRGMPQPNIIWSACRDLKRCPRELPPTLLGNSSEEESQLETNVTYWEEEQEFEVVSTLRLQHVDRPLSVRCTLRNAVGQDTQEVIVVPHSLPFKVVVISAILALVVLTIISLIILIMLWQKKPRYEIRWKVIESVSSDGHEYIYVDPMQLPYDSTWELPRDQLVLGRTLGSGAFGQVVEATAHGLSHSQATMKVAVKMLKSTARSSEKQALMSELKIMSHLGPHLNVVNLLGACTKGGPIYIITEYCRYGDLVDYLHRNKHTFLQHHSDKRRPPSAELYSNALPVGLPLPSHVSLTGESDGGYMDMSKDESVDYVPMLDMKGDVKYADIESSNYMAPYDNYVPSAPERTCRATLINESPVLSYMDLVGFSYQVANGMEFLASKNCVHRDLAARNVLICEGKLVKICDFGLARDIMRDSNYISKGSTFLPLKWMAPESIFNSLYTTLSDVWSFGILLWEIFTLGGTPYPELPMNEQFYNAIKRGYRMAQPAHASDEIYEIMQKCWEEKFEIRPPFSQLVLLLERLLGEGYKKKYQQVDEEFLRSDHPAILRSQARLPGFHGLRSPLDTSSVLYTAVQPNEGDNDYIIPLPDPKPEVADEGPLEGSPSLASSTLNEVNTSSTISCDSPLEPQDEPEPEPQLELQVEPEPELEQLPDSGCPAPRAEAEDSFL
T2 sequence (P11362 22-822): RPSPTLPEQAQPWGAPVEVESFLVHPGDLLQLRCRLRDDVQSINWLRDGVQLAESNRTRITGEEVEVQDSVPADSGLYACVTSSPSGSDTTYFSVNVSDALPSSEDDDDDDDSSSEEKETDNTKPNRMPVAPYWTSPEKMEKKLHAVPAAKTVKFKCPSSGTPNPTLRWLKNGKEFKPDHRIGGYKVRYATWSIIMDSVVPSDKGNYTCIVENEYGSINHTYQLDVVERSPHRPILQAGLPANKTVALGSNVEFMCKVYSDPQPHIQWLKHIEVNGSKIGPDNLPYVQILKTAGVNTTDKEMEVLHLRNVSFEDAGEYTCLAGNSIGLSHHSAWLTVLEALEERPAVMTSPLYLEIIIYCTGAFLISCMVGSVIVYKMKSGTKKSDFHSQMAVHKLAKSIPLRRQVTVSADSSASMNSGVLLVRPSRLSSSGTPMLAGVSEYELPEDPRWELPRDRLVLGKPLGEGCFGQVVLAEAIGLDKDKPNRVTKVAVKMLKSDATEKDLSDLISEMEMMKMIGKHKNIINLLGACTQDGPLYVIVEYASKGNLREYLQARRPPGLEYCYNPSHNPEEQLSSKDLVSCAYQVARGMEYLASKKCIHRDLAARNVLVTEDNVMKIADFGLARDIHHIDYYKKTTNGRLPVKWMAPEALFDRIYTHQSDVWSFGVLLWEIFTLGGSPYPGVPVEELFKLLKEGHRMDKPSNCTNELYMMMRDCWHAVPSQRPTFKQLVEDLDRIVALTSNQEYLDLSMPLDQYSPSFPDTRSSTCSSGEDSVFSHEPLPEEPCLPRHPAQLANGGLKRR
T1 sequence (P35968 20-1356): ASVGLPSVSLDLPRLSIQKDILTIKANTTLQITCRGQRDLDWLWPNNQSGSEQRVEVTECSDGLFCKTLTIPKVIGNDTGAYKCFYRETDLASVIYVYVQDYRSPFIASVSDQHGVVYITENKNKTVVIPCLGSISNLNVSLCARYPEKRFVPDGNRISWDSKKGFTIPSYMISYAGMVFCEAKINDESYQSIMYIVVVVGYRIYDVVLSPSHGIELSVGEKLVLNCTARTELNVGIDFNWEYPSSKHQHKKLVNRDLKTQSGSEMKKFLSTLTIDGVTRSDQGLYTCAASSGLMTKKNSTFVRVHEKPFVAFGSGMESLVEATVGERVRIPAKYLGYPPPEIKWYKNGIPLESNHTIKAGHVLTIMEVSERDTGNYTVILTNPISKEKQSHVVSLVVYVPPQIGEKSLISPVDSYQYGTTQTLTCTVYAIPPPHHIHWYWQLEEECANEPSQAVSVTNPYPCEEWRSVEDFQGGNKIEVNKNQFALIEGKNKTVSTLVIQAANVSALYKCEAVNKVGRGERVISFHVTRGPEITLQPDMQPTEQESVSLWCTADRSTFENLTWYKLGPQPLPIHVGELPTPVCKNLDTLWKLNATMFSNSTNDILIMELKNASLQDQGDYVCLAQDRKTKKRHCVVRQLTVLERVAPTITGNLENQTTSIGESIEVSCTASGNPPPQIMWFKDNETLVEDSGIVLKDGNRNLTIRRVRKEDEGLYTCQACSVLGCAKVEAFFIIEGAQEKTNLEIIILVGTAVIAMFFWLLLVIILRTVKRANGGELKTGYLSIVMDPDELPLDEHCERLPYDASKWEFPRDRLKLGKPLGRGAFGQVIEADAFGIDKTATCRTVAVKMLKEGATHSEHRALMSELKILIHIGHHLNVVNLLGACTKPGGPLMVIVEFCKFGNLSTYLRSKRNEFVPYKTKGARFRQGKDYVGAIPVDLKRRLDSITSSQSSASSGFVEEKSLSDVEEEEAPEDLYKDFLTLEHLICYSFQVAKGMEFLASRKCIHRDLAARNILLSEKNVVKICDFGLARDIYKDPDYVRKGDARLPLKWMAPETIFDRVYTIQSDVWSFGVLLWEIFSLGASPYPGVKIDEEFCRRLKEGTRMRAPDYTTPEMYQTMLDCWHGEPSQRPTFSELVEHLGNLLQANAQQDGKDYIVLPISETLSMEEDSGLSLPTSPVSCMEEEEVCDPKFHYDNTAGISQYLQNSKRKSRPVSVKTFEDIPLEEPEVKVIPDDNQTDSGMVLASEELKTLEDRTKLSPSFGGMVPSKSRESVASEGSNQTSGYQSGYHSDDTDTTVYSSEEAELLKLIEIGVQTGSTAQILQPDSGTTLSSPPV

Row | IC50 (VEGFR2) [nM] | IC50 (FGFR1) [nM] | IC50 (PDGFRB) [nM] | SMILES | IC50 (HUVEC) [nM] | TGI % (last administration) (Calu 6 Transplant model; 50 mg/kg) [%] | TGI % (last administration) (Calu 6 Transplant model; 100 mg/kg) [%] | TGI % (last administration) (Calu 6 Transplant model; 10 mg/kg) [%]
1 | < 50 | < 50 | < 50 | [2H]C([2H])([2H])NC(=S)Nc1ccc(Oc2ccnc3cc(OC)c(C(N)=O)cc23)c(F)c1Cl [Example 112] | < 100 | – | – | –
2 | < 50 | < 50 | < 50 | CCNC(=S)Nc1ccc(Oc2ccnc3cc(OC)c(C(N)=O)cc23)c(F)c1Cl [Example 124] | < 100 | – | – | –
3 | < 50 | 50 to 200 | 200 to 1000 | COc1cc2nccc(Oc3ccc4c(C(=O)NC5CC5)coc4c3)c2cc1C(N)=O [Example 185] | < 100 | – | – | –
4 | 200 to 1000 | 200 to 1000 | 200 to 1000 | COc1cc2nccc(Oc3ccc4oc(C(=O)N5CC(F)(F)C5)cc4c3)c2cc1C(N)=O [Example 190] | 100 to 1000 | – | – | –
5 | 200 to 1000 | 200 to 1000 | 200 to 1000 | COc1cc2nccc(Oc3ccc4oc(C(=O)NC5CC5)cc4c3)c2cc1C(N)=O [Example 191] | 100 to 1000 | – | – | –
6 | < 50 | 50 to 200 | < 50 | [2H]C([2H])([2H])NC(=O)c1coc2cc(Oc3ccnc4cc(OC)c(C(N)=O)cc34)ccc12 [Example 200] | < 100 | – | 59 | –
7 | < 50 | 200 to 1000 | < 50 | COc1cc2nccc(Oc3cc4occ(C(=O)NC5CC5)c4cc3F)c2cc1C(N)=O [Example 207] | 100 to 1000 | – | – | –
8 | 50 to 200 | 50 to 200 | < 50 | [2H]C([2H])([2H])NC(=O)c1coc2cc(Oc3ccnc4cc(OC)c(C(N)=O)cc34)c(F)cc12 [Example 209] | 100 to 1000 | – | – | –
9 | < 50 | 200 to 1000 | < 50 | CCNC(=O)c1coc2cc(Oc3ccnc4cc(OC)c(C(N)=O)cc34)ccc12 [Example 210] | < 100 | – | – | –
10 | < 50 | < 50 | < 50 | [2H]C([2H])([2H])NC(=O)c1coc2cc(Oc3ccnc4cc(-c5cn(C)cn5)ccc34)ccc12 [Example 224] | < 100 | – | – | –

The remaining lines, values behind:

Row | SMILES | IC50 (VEGFR2) [nM] | IC50 (FGFR1) [nM] | IC50 (PDGFRB) [nM] | IC50 (HUVEC) [nM] | TGI % (last administration) (Calu 6 Transplant model; 50 mg/kg) [%] | TGI % (last administration) (Calu 6 Transplant model; 100 mg/kg) [%] | TGI % (last administration) (Calu 6 Transplant model; 10 mg/kg) [%]
11 | COc1cc2nccc(Oc3ccc(NC(=S)NC4CC4)c(Cl)c3)c2cc1C(N)=O [Example 1] | < 50 | 200 to 1000 | 50 to 200 | < 100 | 57 | – | –
12 | COc1cc2nccc(Oc3ccc(NC(=S)NCC4CC4)c(Cl)c3)c2cc1C(N)=O [Example 59] | < 50 | 200 to 1000 | 50 to 200 | 100 to 1000 | – | – | –
13 | COc1cc2nccc(Oc3ccc(NC(=S)Nc4cnn(C(C)C)c4)c(Cl)c3)c2cc1C(N)=O [Example 70] | < 50 | 200 to 1000 | < 50 | < 100 | – | – | –
14 | COc1cc2nccc(Oc3ccc(NC(=S)NC4CC4)c(Cl)c3F)c2cc1C(N)=O [Example 78] | < 50 | 50 to 200 | < 50 | < 100 | – | – | –
15 | COc1cc2nccc(Oc3ccc(NC(=S)N4CC(F)(F)C4)c(Cl)c3F)c2cc1C(N)=O [Example 95] | < 50 | 50 to 200 | 50 to 200 | 100 to 1000 | – | – | –
16 | COc1cc2nccc(Oc3ccc(NC(=S)N4CCCC4)c(Cl)c3F)c2cc1C(N)=O [Example 98] | < 50 | < 50 | 50 to 200 | 100 to 1000 | – | – | –
17 | COc1cc2nccc(Oc3ccc(NC(=S)N4CC[C@H](F)C4)c(Cl)c3F)c2cc1C(N)=O [Example 103] | < 50 | 50 to 200 | 200 to 1000 | 100 to 1000 | – | – | –
18 | COc1cc2nccc(Oc3ccc(NC(=S)N4CC(F)C4)c(Cl)c3F)c2cc1C(N)=O [Example 123] | < 50 | < 50 | 50 to 200 | 100 to 1000 | – | – | –
19 | COCCOc1cc2nccc(Oc3ccc(NC(=S)NC4CC4)c(Cl)c3)c2cc1C(N)=O [Example 174] | < 50 | 200 to 1000 | < 50 | < 100 | – | – | –
20 | Cn1cnc(-c2ccc3c(Oc4ccc(NC(=S)NC5CC5)c(Cl)c4)ccnc3c2)c1 [Example 212] | < 50 | 200 to 1000 | < 50 | 100 to 1000 | – | – | –
21 | Cn1cnc(-c2ccc3c(Oc4ccc(NC(=O)NC5CC5)c(Cl)c4F)ccnc3c2)c1 [Example 214] | < 50 | < 50 | 50 to 200 | < 100 | – | – | –
22 | Cn1cncc1-c1ccc2c(Oc3ccc(NC(=O)NC4CC4)c(Cl)c3F)ccnc2c1 [Example 215] | < 50 | 50 to 200 | 50 to 200 | < 100 | – | – | –
23 | CCNC(=O)Nc1ccc(Oc2ccnc3cc(-c4cn(C)cn4)ccc23)c(F)c1Cl [Example 216] | < 50 | < 50 | 50 to 200 | < 100 | – | – | 83
24 | Cn1cnc(-c2ccc3c(Oc4ccc(NC(=O)N5CC(F)(F)C5)c(Cl)c4F)ccnc3c2)c1 [Example 218] | < 50 | 50 to 200 | < 50 | 100 to 1000 | – | – | –
25 | Cn1cnc(-c2ccc3c(Oc4ccc(NC(=O)N5CCCC5)c(Cl)c4F)ccnc3c2)c1 [Example 219] | < 50 | < 50 | 50 to 200 | < 100 | – | – | –
26 | CCNC(=O)Nc1ccc(Oc2ccnc3cc(-c4cn(C)cn4)ccc23)cc1Cl [Example 220] | < 50 | < 50 | 50 to 200 | < 100 | – | – | –
27 | Cn1cnc(-c2ccc3c(Oc4ccc(NC(=O)NC5CC5)c(Cl)c4)ccnc3c2)c1 [Example 221] | < 50 | < 50 | 50 to 200 | < 100 | – | – | –
28 | CCNC(=O)c1coc2cc(Oc3ccnc4cc(-c5cn(C)cn5)ccc34)ccc12 [Example 222] | < 50 | < 50 | 50 to 200 | < 100 | – | – | –
29 | Cn1cnc(-c2ccc3c(Oc4ccc5c(C(=O)NC6CC6)coc5c4)ccnc3c2)c1 [Example 223] | < 50 | < 50 | 50 to 200 | < 100 | – | – | –
30 | CNC(=O)c1coc2cc(Oc3ccnc4cc(-c5cn(C)cn5)ccc34)ccc12 [Example 225] | < 50 | < 50 | 50 to 200 | < 100 | – | – | –
